Key:
[1] = tested on: LDLR on HepG2 cell surface; experiment: In-cell western (ICW), LDLR on HepG2 surface in the presence of PCSK9; format: cell-based, human; conditions: 50 µM + PCSK9 4 µg/mL; Figure 3B
Protocol: For the experiments, a total of 3 × 10^4 HepG2 cells/well were seeded in 96-well plates and treated with 4.0 μg/mL PCSK9-WT and 4.0 μg/mL PCSK9 + peptides P5 and/or P5 analogs (50 µM) and vehicle (H2O) for 2 h at 37 °C under 5% CO2 atmosphere. Thus, cells underwent to ICW assay following conditions already optimized. See Supplementary Materials for detailed information. […]
cLex Co., Nagano, Japan). The peptides (P5, P5-Best, P-H6A, and P5-S7A) were synthe-sized by the company GeneScript (Piscataway, NJ, USA) at >95% purity. The antibody against HMG-CoAR was bought from Abcam (Cambridge, UK). […]
HMG-CoAR Aactivity Assay. […] Subsequently, the samples were mixed and the absorbance at 340 nm read by the microplate reader Synergy H1 (Winooski, VT, USA) at time 0 and 10 min. The HMG-CoAR-dependent oxidation of NADPH and the inhibition properties of peptides were measured by absorbance reduction, which is directly proportional to enzyme activ- […]
In Vitro PCSK9-LDLR Binding Assay. […] The reaction was stopped with 2.0 M sulfuric acid and the absorbance at 450nm was measured using the Synergy H1 fluorescent plate reader […]

LDL uptake, HepG2 cells = conditions: cited from earlier work
Description: In fact, in our previous paper, by applying a computational approach such as the one here applied, we designed and biologically evaluated two poly-imidazole derivatives endowed with PCSK9 inhibiting activity.

[2] = tested on: human intestinal Caco-2 cells; conditions: cited from earlier work

LILPKHSDAD [Peptide P5]
LDLR level on cell surface in presence of PCSK9 [1]: restored
uptake of extracellular LDL by HepG2 (P5, earlier work, words) (LDL uptake, HepG2 cells): improved ability of HepG2 cells to uptake extracellular LDL
metabolism during Caco-2 transport [2]: partially metabolized in a breakdown fragment (LPKHSDAD, P5-met)
transport by differentiated Caco-2 cells [2]: successfully transported

From PMC8951016, “Computational Design and Biological Evaluation of Analogs of Lupin Peptide P5 Endowed with Dual PCSK9/HMG-CoAR Inhibiting Activity” (Pharmaceutics, 2022)
